According to patent US20220401589A1, “PRE-TARGETING IMAGING AGENTS” (Eli Lilly and Company, priority 2019, published 2022):

Experiments:
[1] = Reduction of tetrazine moiety by ascorbate formulation; format: physicochemical
From the text: In another aspect the present embodiments provide a pharmaceutical composition comprising Compound 1 or Compound 2, or pharmaceutically acceptable salt thereof, which is formulated in ethanol (such as, for example 10% EtOH (v/v)) and buffer (which may be PBS buffer), preferably for use in humans. […] Thus, although ascorbate formulation is readily used in many formulations for imaging, it may not be suitable for imaging with the compounds of Formula I or Formula II.

[2] = Dynamic PET-CT imaging, tracer uptake in brain, muscle and bone; format: in vivo, Male CD-1 mice; details: for Bone Mean / Brain Mean / Muscle Mean: 60 minute PET scan
Description: PET-CT imaging of [^18F]—N-(4-(1,2,4,5-tetrazin-3-yl)benzyl)-4-fluorobenzamide
A Siemens Inveon® Multimodality Scanner (Siemens, Germany) is used for micro PET/CT imaging. Male CD-1 (6-week-old, ˜30 g) mice are anesthetized with 3% isoflurane/97% oxygen and placed on the bed of the scanner. The mice are administered [^18F]—N-(4-(1,2,4,5-tetrazin-3-yl)benzyl)-4-fluorobenzamide via a bolus intravenous tail vein injection (˜[…] in a total volume of 200 μL saline). A total of six (four 60 min and two 90 min) dynamic PET scans are conducted, followed by a short high-resolution CT scan for anatomical registration. PET images are generated for each minute of the acquisition time. Uptake of the tracer in the brain, muscle, and bone are determined by visually drawing regions of interest (ROIs) based on the fused PET/CT images and the corresponding activity values are determined using the Inveon® Research Workplace software. All values are represented as % injected dose per gram (% ID/g).
Bone uptake throughout the scan period remained low, consistent with an absence of defluorination for this tracer. Results of the 90 min scans are similar to the 60 min scan results with peak brain uptake observed at 3.4% ID/g at 2.5 min post injection followed by an immediate wash out to 0.6% ID/g by 59.5 min. Residual uptake is also observed throughout the body of the mouse. Time activity curves are generated for [^18F]—N-(4-(1,2,4,5-tetrazin-3-yl)benzyl)-4-fluorobenzamide in CD-1 male mice (n=4). Data is shown in graphical format in FIGS. 1A and 1B and in tabular format below.

## O=C(NCc1ccc(-c2nncnn2)cc1)c1ccc(F)cc1 [Compound 1, N-(4-(1,2,4,5-tetrazin-3-yl)benzyl)-4-fluorobenzamide]
[1]
  reduction of the tetrazine moiety: readily reduced

## O=C(NCc1ccc(-c2nncnn2)cc1)c1ccc([18F])cc1 [[^18F]—N-(4-(1,2,4,5-tetrazin-3-yl)benzyl)-4-fluorobenzamide]
[1]
  reduction of the tetrazine moiety: readily reduced
[2]; 60-minute PET scans
  Uptake throughout the body: observed throughout the body in organs such as the liver, kidneys and heart
[2]; time 2.5 min
  Bone Mean: 1.28 % ID/g
  Brain Mean: 4.06 % ID/g
  Muscle Mean: 1.14 % ID/g
[2]; time 3.5 min
  Bone Mean: 1.09 % ID/g
  Brain Mean: 3.70 % ID/g
  Muscle Mean: 1.13 % ID/g
[2]; time 4.5 min
  Bone Mean: 1.04 % ID/g
  Brain Mean: 3.36 % ID/g
  Muscle Mean: 1.15 % ID/g
[2]; time 5.5 min
  Bone Mean: 1.01 % ID/g
  Brain Mean: 3.20 % ID/g
  Muscle Mean: 1.17 % ID/g
[2]; time 6.5 min
  Bone Mean: 1.07 % ID/g
  Brain Mean: 3.01 % ID/g
  Muscle Mean: 1.10 % ID/g
[2]; time 7.5 min
  Bone Mean: 1.12 % ID/g
  Brain Mean: 2.81 % ID/g
  Muscle Mean: 1.11 % ID/g
[2]; time 8.5 min
  Bone Mean: 1.04 % ID/g
  Brain Mean: 2.62 % ID/g
  Muscle Mean: 1.15 % ID/g
[2]; time 9.5 min
  Bone Mean: 0.97 % ID/g
  Brain Mean: 2.46 % ID/g
  Muscle Mean: 1.09 % ID/g
[2]; time 10.5 min
  Bone Mean: 1.03 % ID/g
  Brain Mean: 2.32 % ID/g
  Muscle Mean: 1.09 % ID/g
[2]; time 11.5 min
  Bone Mean: 1.01 % ID/g
  Brain Mean: 2.17 % ID/g
  Muscle Mean: 1.08 % ID/g
[2]; time 12.5 min
  Bone Mean: 0.93 % ID/g
  Brain Mean: 2.07 % ID/g
  Muscle Mean: 1.06 % ID/g
[2]; time 13.5 min
  Bone Mean: 0.96 % ID/g
  Brain Mean: 1.97 % ID/g
  Muscle Mean: 1.06 % ID/g
[2]; time 14.5 min
  Bone Mean: 0.78 % ID/g
  Brain Mean: 1.88 % ID/g
  Muscle Mean: 1.00 % ID/g
[2]; time 15.5 min
  Bone Mean: 0.89 % ID/g
  Brain Mean: 1.79 % ID/g
  Muscle Mean: 1.02 % ID/g
[2]; time 16.5 min
  Bone Mean: 0.96 % ID/g
  Brain Mean: 1.70 % ID/g
  Muscle Mean: 1.02 % ID/g
[2]; time 17.5 min
  Bone Mean: 0.87 % ID/g
  Brain Mean: 1.64 % ID/g
  Muscle Mean: 1.03 % ID/g
[2]; time 18.5 min
  Bone Mean: 0.92 % ID/g
  Brain Mean: 1.58 % ID/g
  Muscle Mean: 1.05 % ID/g
[2]; time 19.5 min
  Bone Mean: 0.93 % ID/g
  Brain Mean: 1.52 % ID/g
  Muscle Mean: 0.94 % ID/g
[2]; time 20.5 min
  Bone Mean: 1.01 % ID/g
  Brain Mean: 1.47 % ID/g
  Muscle Mean: 0.95 % ID/g
[2]; time 21.5 min
  Bone Mean: 0.88 % ID/g
  Brain Mean: 1.42 % ID/g
  Muscle Mean: 1.06 % ID/g
[2]; time 22.5 min
  Bone Mean: 0.99 % ID/g
  Brain Mean: 1.38 % ID/g
  Muscle Mean: 1.04 % ID/g
[2]; time 23.5 min
  Bone Mean: 0.85 % ID/g
  Brain Mean: 1.33 % ID/g
  Muscle Mean: 0.92 % ID/g
[2]; time 24.5 min
  Bone Mean: 0.88 % ID/g
  Brain Mean: 1.29 % ID/g
  Muscle Mean: 0.96 % ID/g
[2]; time 25.5 min
  Bone Mean: 1.02 % ID/g
  Brain Mean: 1.26 % ID/g
  Muscle Mean: 0.97 % ID/g
[2]; time 26.5 min
  Bone Mean: 0.88 % ID/g
  Brain Mean: 1.23 % ID/g
  Muscle Mean: 0.92 % ID/g
[2]; time 27.5 min
  Bone Mean: 0.83 % ID/g
  Brain Mean: 1.18 % ID/g
  Muscle Mean: 0.89 % ID/g
[2]; time 28.5 min
  Bone Mean: 0.92 % ID/g
  Brain Mean: 1.17 % ID/g
  Muscle Mean: 0.91 % ID/g
[2]; time 29.5 min
  Bone Mean: 0.93 % ID/g
  Brain Mean: 1.14 % ID/g
  Muscle Mean: 0.94 % ID/g
[2]; time 30.5 min
  Bone Mean: 0.92 % ID/g
  Brain Mean: 1.11 % ID/g
  Muscle Mean: 0.93 % ID/g
[2]; time 31.5 min
  Bone Mean: 0.96 % ID/g
  Brain Mean: 1.09 % ID/g
  Muscle Mean: 0.99 % ID/g
[2]; time 32.5 min
  Bone Mean: 0.85 % ID/g
  Brain Mean: 1.07 % ID/g
  Muscle Mean: 0.89 % ID/g
[2]; time 33.5 min
  Bone Mean: 0.95 % ID/g
  Brain Mean: 1.04 % ID/g
  Muscle Mean: 0.93 % ID/g
[2]; time 34.5 min
  Brain Mean: 1.04 % ID/g
[2]; 90 min scans, 2.5 min post injection
  peak brain uptake: 3.4 % ID/g
[2]; 90 min scans, by 59.5 min
  brain uptake after wash out: 0.6 % ID/g
[2]; WT mice, approximately 2.5 min post injection
  peak brain uptake: 4.1±0.3 % ID/g
[2]; WT mice, by 60 minutes
  brain uptake after steady clearance of tracer: 0.8±0.1 % ID/g
[2]; consistent with an absence of defluorination
  Bone uptake throughout the scan period: remained low
[2]; dynamic PET imaging in mice
  crossing of the blood-brain-barrier: readily crosses the blood-brain-barrier
[2]; four 60-minute PET scans, 2.5 min post injection
  peak brain uptake: 4.1 % ID/g
[2]; four 60-minute PET scans, at 59.5 min
  brain uptake after steady clearance of tracer: 0.8 % ID/g
